# Test results taken from patent US20230292752A1, “S[…] COMBINATIONS, COMPOSITIONS AND USE THEREOF” (UPL Corporation Limited, priority 2020, published 2023).
# Tests used:
# Assay type in all cases: in vivo
# Green foxtail = assay: Pot trial, clethodim and pyraflufen-ethyl, green foxtail; conditions: 4 DAT
# Method: (§1) Pot trials for clethodim, pyraflufen-ethyl and their combination (premix and tan-mix) were carried out against green foxtail, large crabgrass and Bermuda grass
# Setaria weeds = assay: Trial on table grapes, clethodim and pyraflufen-ethyl, Setaria weed control; conditions: 28 days after treatment
# Method: Clethodim and pyraflufen-ethyl were tested on table grapes as individual applications, premix and tank-mix combinations. The products were formulated as an EC formulation and compared with Glufosinate SC. Effect of the treatment was checked on Setaria weeds at 28 days after treatment.
# Setaria pumila SETPU = assay: Field trial, clethodim and carfentrazone-ethyl, weed control on Setaria pumila
# Method: (§2) Field trials were performed to evaluate the efficacy of present combination, clethodim and carfentrazone-ethyl on annual grass control and dicot control in perennial crops. • Grass weeds targeted: LOLSS, BROSS, ECHSS, DIGSS, SETS S • Dicot weeds targeted: ERISS, GERSS, Sonchus sp., CONAR, Malva sp (rosette stage when application, prior stem elongation, prior flowering, prior ground cover) • Application volume: 300 L/ha
# (§3) Colby's equation was used to determine the herbicidal effects expected from the mixtures. (See Colby, S. R. Calculation of the synergistic and antagonistic response of herbicide combinations. Weeds 1967, 15, 20-22.)
# (§4) The following equation was used to calculate the expected activity of mixtures containing two active ingredients, A and B:
# (§5) Expected=A+B−(A×B/100) • A=observed efficacy of active component A at the same concentration as used in the mixture; • B=observed efficacy of active component B at the same concentration as used in the mixture. The ability of the compositions described herein to afford suitable weed control is illustrated by the efficacy data in Table 3 to 10
# Biological Activity Observed with Synergistic Mixtures of Clethodim and Carfentrazone in Applications on Setaria pumila SETPU (n=1) 56-59 DAA was represented in table below
# Portulaca oleracea POROL = assay: Field trial, clethodim and carfentrazone-ethyl, weed control on Portulaca oleracea
# Method: as §2, §3, §4, §5
# Biological Activity Observed with Synergistic Mixtures of Clethodim and Carfentrazone in Applications on Portulaca oleracea POROL (n=1) 14 DAA.
# Senecio vulgaris SENVU = assay: Field trial, clethodim and carfentrazone-ethyl, weed control on Senecio vulgaris
# Method: as §2, §3, §4, §5
# Biological Activity Observed with Synergistic Mixtures of Clethodim and Carfentrazone in Applications on Senecio vulgaris SENVU (n=1) 14 DAA.
# Lolium multiflorum LOLMU = assay: Field trial, clethodim and carfentrazone-ethyl, weed control on Lolium multiflorum
# Method: as §2, §3, §4, §5
# Biological Activity Observed with Synergistic Mixtures of Clethodim and Carfentrazone in Applications on Lolium multiflorum LOLMU (n=2) 56-59 DAA was represented in table below
# [1] = system: Echinochloa crus-galli ECHCG; assay: Field trial, clethodim and carfentrazone-ethyl, weed control on Echinochloa crus-galli
# Method: as §2, §3, §4, §5
# Biological Activity Observed with Synergistic Mixtures of Clethodim and Carfentrazone in Applications on Echinochloa crus-galli ECHCG (n=2) 56-59 DAA was represented in table below.
# [2] = system: Convolvulus arvensis CONAR; assay: Field trial, clethodim and carfentrazone-ethyl, weed control on Convolvulus arvensis
# Method: as §2, §3, §4, §5
# Biological Activity Observed with Synergistic Mixtures of Clethodim and Carfentrazone in Applications on Convolvulus arvensis CONAR (n=2) 14-15 DAA.
# Bermuda grass = assay: Pot trial, clethodim and pyraflufen-ethyl, Bermuda grass; conditions: 4 DAT
# Method: as §1
# Sonchus oleraceus SONOL = assay: Field trial, clethodim and carfentrazone-ethyl, weed control on Sonchus oleraceus
# Method: as §2, §3, §4, §5
# Biological Activity Observed with Synergistic Mixtures of Clethodim and Carfentrazone in Applications on Sonchus oleraceus SONOL (n=2) 14-15 DAA
# [3] = system: Digitaria sanguinalis DIGSA; assay: Field trial, clethodim and carfentrazone-ethyl, weed control on Digitaria sanguinalis
# Method: as §2, §3, §4, §5
# Biological Activity Observed with Synergistic Mixtures of Clethodim and Carfentrazone (Carfentrazone-ethyl) in Applications on Digitaria sanguinalis DIGSA (n=2) at 56-59 DAA was represented in table below.
# Large crabgrass = assay: Pot trial, clethodim and pyraflufen-ethyl, large crabgrass; conditions: 4 DAT
# Method: as §1
# [4] = clethodim 72 gai/ha, carfentrazone 0, n=1
# [5] = clethodim 120 gai/ha, carfentrazone 0, n=1
# [6] = clethodim 180 gai/ha, carfentrazone 0, n=1
# [7] = clethodim 120 gai/ha, carfentrazone 0, n=2
# [8] = clethodim 180 gai/ha, carfentrazone 0, n=2
# [9] = carfentrazone 12 gai/ha, clethodim 0, n=1
# [10] = carfentrazone 20 gai/ha, clethodim 0, n=1
# [11] = carfentrazone 30 gai/ha, clethodim 0, n=1
# [12] = carfentrazone 45 gai/ha, clethodim 0, n=1
# [13] = carfentrazone 60 gai/ha, clethodim 0, n=1
# [14] = carfentrazone 30 gai/ha, clethodim 0, n=2
# [15] = carfentrazone 45 gai/ha, clethodim 0, n=2
# [16] = carfentrazone 60 gai/ha, clethodim 0, n=2
smiles,measurement,setting,value
CP(=O)(O)CCC(N)C(=O)O (stereo not shown) [Glufosinate],% control (observed),Green foxtail; 350 gai/ha,65%
same,% control (observed),Green foxtail; 700 gai/ha,75%
same,Weed control % (Observed efficacy),Setaria weeds; 700 g ai/ha,85%
CCSC(C)CC1CC(=O)C(/C(CC)=N/OC/C=C/Cl)=C(O)C1 (stereo not shown) [Clethodim],Observed Efficacy (O) in % (56-59 DAA),Setaria pumila SETPU; [4],43%
same,Observed Efficacy (O) in % (56-59 DAA),Setaria pumila SETPU; [5],50%
same,Observed Efficacy (O) in % (56-59 DAA),Setaria pumila SETPU; [6],94%
same,Observed Efficacy (O) in % (14 DAA),Portulaca oleracea POROL; [5],0%
same,Observed Efficacy (O) in % (14 DAA),Portulaca oleracea POROL; [6],0%
same,Observed Efficacy (O) in % (14 DAA),Senecio vulgaris SENVU; [4],0%
same,Observed Efficacy (O) in % (14 DAA),Senecio vulgaris SENVU; [5],2%
same,Observed Efficacy (O) in % (14 DAA),Senecio vulgaris SENVU; [6],0%
same,Observed Efficacy (O) in % (56-59 DAA),Lolium multiflorum LOLMU; [7],52%
same,Observed Efficacy (O) in % (56-59 DAA),Lolium multiflorum LOLMU; [8],74%
same,Observed Efficacy (O) in % (56-59 DAA),[1]; [7],84%
same,Observed Efficacy (O) in % (56-59 DAA),[1]; [8],97%
same,Observed Efficacy (O) in % (14-15 DAA),"[2]; clethodim 72 gai/ha, carfentrazone 0, n=2",8%
same,Observed Efficacy (O) in % (14-15 DAA),[2]; [7],12%
same,Observed Efficacy (O) in % (14-15 DAA),[2]; [8],8%
same,% control (observed),Green foxtail; 250 gai/ha,25%
same,% control (observed),Bermuda grass; 250 gai/ha,20%
same,Weed control % (Observed efficacy),Setaria weeds; 125 g ai/ha,85%
same,Observed Efficacy (O) in % (14-15 DAA),Sonchus oleraceus SONOL; [7],13%
same,Observed Efficacy (O) in % (56-59 DAA),[3]; [7],95%
same,Observed Efficacy (O) in % (56-59 DAA),[3]; [8],97%
same,% control (observed),Large crabgrass; 250 gai/ha,20%
CCOC(=O)COc1cc(-c2nn(C)c(OC(F)F)c2Cl)c(F)cc1Cl [Pyraflufen-ethyl],% control (observed),Green foxtail; 24 gai/ha,20%
same,% control (observed),Bermuda grass; 24 gai/ha,10%
same,Weed control % (Observed efficacy),"Setaria weeds; 12 g ai/ha, formulated with mineral oil",0%
same,% control (observed),Large crabgrass; 24 gai/ha,10%
"CCOC(=O)C(Cl)Cc1cc(-n2nc(C)n(C(F)F)c2=O)c(F)cc1Cl (stereo not shown) [Carfentrazone, Carfentrazone-ethyl]",Observed Efficacy (O) in % (56-59 DAA),Setaria pumila SETPU; [9],0%
same,Observed Efficacy (O) in % (56-59 DAA),Setaria pumila SETPU; [10],0%
same,Observed Efficacy (O) in % (56-59 DAA),Setaria pumila SETPU; [11],0%
same,Observed Efficacy (O) in % (56-59 DAA),Setaria pumila SETPU; [12],0%
same,Observed Efficacy (O) in % (56-59 DAA),Setaria pumila SETPU; [13],0%
same,Observed Efficacy (O) in % (14 DAA),Portulaca oleracea POROL; [10],90%
same,Observed Efficacy (O) in % (14 DAA),Portulaca oleracea POROL; [11],97%
same,Observed Efficacy (O) in % (14 DAA),Portulaca oleracea POROL; [12],100%
same,Observed Efficacy (O) in % (14 DAA),Portulaca oleracea POROL; [13],100%
same,Observed Efficacy (O) in % (14 DAA),Senecio vulgaris SENVU; [9],88%
same,Observed Efficacy (O) in % (14 DAA),Senecio vulgaris SENVU; [10],92%
same,Observed Efficacy (O) in % (14 DAA),Senecio vulgaris SENVU; [11],97%
same,Observed Efficacy (O) in % (14 DAA),Senecio vulgaris SENVU; [12],100%
same,Observed Efficacy (O) in % (14 DAA),Senecio vulgaris SENVU; [13],100%
same,Observed Efficacy (O) in % (56-59 DAA),Lolium multiflorum LOLMU; [14],50%
same,Observed Efficacy (O) in % (56-59 DAA),Lolium multiflorum LOLMU; [15],50%
same,Observed Efficacy (O) in % (56-59 DAA),Lolium multiflorum LOLMU; [16],50%
same,Observed Efficacy (O) in % (56-59 DAA),[1]; [14],57%
same,Observed Efficacy (O) in % (56-59 DAA),[1]; [16],59%
same,Observed Efficacy (O) in % (14-15 DAA),"[2]; carfentrazone 12 gai/ha, clethodim 0, n=2",58%
same,Observed Efficacy (O) in % (14-15 DAA),[2]; [16],93%
same,Observed Efficacy (O) in % (14-15 DAA),"Sonchus oleraceus SONOL; carfentrazone 20 gai/ha, clethodim 0, n=2",89%
same,Observed Efficacy (O) in % (14-15 DAA),Sonchus oleraceus SONOL; [14],92%
same,Observed Efficacy (O) in % (56-59 DAA),[3]; [14],13%
same,Observed Efficacy (O) in % (56-59 DAA),[3]; [15],27%
same,Observed Efficacy (O) in % (56-59 DAA),[3]; [16],17%
